Structures are written as SMILES.

Experiment [1] concerns ATXN3 transcripts containing exon 4. As to the kind of experiment: ATXN3 quantitative splicing assay (qPCR, E4E5 transcripts containing exon 4). It counts as cell-based. As to conditions: Human neuroblastoma SK-N-MC cells, 24 h treatment, qPCR primers/probe E4E5. The method in brief: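 SK-N-MC neuroblastoma cells treated 24 h with compounds from 30 μM to 0.6 nM (0.3% DMSO), then lysed for cDNA synthesis. ATXN3 transcripts containing exon 4 quantified by TaqMan qPCR with E4E5 primers/probe; E8E9 set measured total ATXN3.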
(Quantitative PCR measures a nucleic acid by following its amplification.)

The next experiment deals with total ATXN3 protein. Briefly: ATXN3 total protein assay (Mesoscale Discovery). The format is cell-based. The settings on record: Human neuroblastoma SK-N-MC cells, 48 hours incubation, MSD assay. The essentials:
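SK-N-MC neuroblastoma cells treated 48 hours with compound, 30 µM to 0.6 nM. Lysates assayed by MSD sandwich immunoassay with mouse capture and rabbit detection anti-ATXN3 antibodies; quantified against recombinant ATXN3 standards.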

With `C[C@H](F)[C@H](N)Cc1sc2c(NCc3sccc3F)snc2c1Cl` [Compound 95, 7-[(2R,3S)-2-amino-3-fluorobutyl]-8-chloro-4-{[(3-fluoro-2-thienyl)methyl]amino}-3,6-dithia-2-azabicyclo[3.3.0]octa-1,4,7-triene], the IC50 (in experiment [1]; in the experiment on total ATXN3 protein) was 0.501 to 5 µM in each case.
As to `C[C@H](F)[C@H](N)Cc1sc2c(NCc3ccc(F)s3)snc2c1Cl` [Compound 96, 7-[(2R,3S)-2-amino-3-fluorobutyl]-8-chloro-4-{[(5-fluoro-2-thienyl)methyl]amino}-3,6-dithia-2-azabicyclo[3.3.0]octa-1,4,7-triene], the IC50 in experiment [1] lay within 0.501 to 5 µM; in the experiment on total ATXN3 protein it was 5 to 10 µM.
`C=Cc1c(C[C@@H](N)[C@H](C)F)sc2c(NCc3cccs3)snc12` [Compound 97, 7-[(2R,3S)-2-amino-3-fluorobutyl]-4-thenylamino-8-vinyl-3,6-dithia-2-azabicyclo[3.3.0]octa-1,4,7-triene]: the IC50 (in experiment [1]; in the experiment with total ATXN3 protein) was 0.501 to 5 µM throughout.
Take `C[C@H](N)C(F)(F)c1sc2c(NCc3cccs3)snc2c1Cl` [Compound 98, 7-[(S)-2-amino-1,1-difluoropropyl]-8-chloro-4-thenylamino-3,6-dithia-2-azabicyclo[3.3.0]octa-1,4,7-triene]: the IC50 (in experiment [1]; in the experiment with total ATXN3 protein) was 0.501 to 5 µM throughout.
`C[C@H](N)C(F)(F)c1sc2c(NCc3cccs3)snc2c1Br` [Compound 99, 5-[(2S)-2-amino-1,1-difluoropropyl]-6-bromo-N-(thiophen-2-ylmethyl)thieno[3,2-c][1,2]thiazol-3-amine]: the IC50 (in experiment [1]; with total ATXN3 protein) was 0.501 to 5 µM each time.
For `N[C@@H](COC1CC1)Cc1sc2c(NCc3cccs3)snc2c1Br` [Compound 100, 7-[(R)-2-amino-3-cyclopropoxypropyl]-8-bromo-4-thenylamino-3,6-dithia-2-azabicyclo[3.3.0]octa-1,4,7-triene], the IC50 (in experiment [1]; in the experiment on total ATXN3 protein) was 0.501 to 5 µM in each case.
Turning to `N[C@H](Cc1sc2c(NCc3ccco3)snc2c1Cl)C(F)F` [Compound 101, 7-[(R)-2-amino-3,3-difluoropropyl]-8-chloro-4-(furfurylamino)-3,6-dithia-2-azabicyclo[3.3.0]octa-1,4,7-triene], the IC50 (in experiment [1]; in the experiment on total ATXN3 protein) was 0.501 to 5 µM each time.
As for `C[C@H](N)C(O)c1sc2c(NCc3cccs3)snc2c1Cl` (stereo partly drawn) [Compound 102, (2S)-2-amino-1-(8-chloro-4-thenylamino-3,6-dithia-2-azabicyclo[3.3.0]octa-1,4,7-trien-7-yl)-1-propanol], the concentration for half-maximal inhibition (IC50) (in experiment [1]; with total ATXN3 protein) was 10 to 40 µM each time.
In the case of `C[C@H](N)C(O)c1sc2c(NCc3cccs3)snc2c1Br` (stereo partly drawn) [Compound 103, (2S)-2-amino-1-{6-bromo-3-[(thiophen-2-ylmethyl)amino]thieno[3,2-c][1,2]thiazol-5-yl}propan-1-ol], the IC50 (in experiment [1]; with total ATXN3 protein) was 10 to 40 µM each time.
`N[C@@H](CF)Cc1sc2c(NCc3nccs3)snc2c1Br` [Compound 104, 7-[(R)-2-amino-3-fluoropropyl]-8-bromo-4-{[(1,3-thiazol-2-yl)methyl]amino}-3,6-dithia-2-azabicyclo[3.3.0]octa-1,4,7-triene]: the IC50 (in experiment [1]; in the experiment with total ATXN3 protein) was 0.501 to 5 µM each time.
As to `C[C@H](F)[C@H](N)Cc1sc2c(NCc3nccs3)snc2c1Br` [Compound 105, 7-[(2R,3S)-2-amino-3-fluorobutyl]-8-bromo-4-{[(1,3-thiazol-2-yl)methyl]amino}-3,6-dithia-2-azabicyclo[3.3.0]octa-1,4,7-triene], the IC50 (in experiment [1]; in the experiment on total ATXN3 protein) was 0.101 to 0.5 µM each time.
Regarding `C[C@@H](F)[C@H](N)Cc1sc2c(NCc3nccs3)snc2c1Br` [Compound 106, 7-[(2R,3R)-2-amino-3-fluorobutyl]-8-bromo-4-{[(1,3-thiazol-2-yl)methyl]amino}-3,6-dithia-2-azabicyclo[3.3.0]octa-1,4,7-triene], the IC50 (in experiment [1]; in the experiment on total ATXN3 protein) was 0.501 to 5 µM each time.

One may read the IC50 as the point on the concentration scale where inhibition reaches its midpoint. A high value points to lower potency.

(Values after patent US20250340570A1, “COMPOSITIONS USEFUL FOR MODULATING SPLICING” (Skyhawk Therapeutics, Inc., priority 2022, published 2025).)
